Measured values taken from PubChem BioAssay AID328 (DTP/NCI, 2004).
Where “and” joins values, the source holds several entries; their conditions need not be identical. Identical values can stand only once. Inconclusive results and toxic doses are left out. Rule for the calls: active = survival T/C of 150% or more; inactive = T/C below 125% in these data.

Tested on: BDF1 mice, P388 leukemia ip, median survival T/C
Assay: NCI In Vivo Anticancer Drug Screen. Data for tumor model P388 Leukemia (intraperitoneal) in B6D2F1 (BDF1) mice
Conditions: endpoint: median survival time, higher = longer survival
Method in brief: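 Survival ratio, drug arm over vehicle arm, in mice with a transplanted tumour.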

[1] = dose: 50.0 mg/kg/injection, schedule: Q04DX003 (ip), vehicle: saline with Tween-80
[2] = dose: 100.0 mg/kg/injection, schedule: Q04DX003 (ip), vehicle: saline with Tween-80
[3] = dose: 200.0 mg/kg/injection, schedule: Q04DX003 (ip), vehicle: saline with Tween-80
[4] = dose: 400.0 mg/kg/injection, schedule: Q04DX003 (ip), vehicle: saline with Tween-80
[5] = dose: 50.0 mg/kg/injection, schedule: Q01DX001 (ip), vehicle: saline
[6] = dose: 100.0 mg/kg/injection, schedule: Q01DX001 (ip), vehicle: saline
[7] = dose: 200.0 mg/kg/injection, schedule: Q01DX001 (ip), vehicle: saline
[8] = dose: 50.0 mg/kg/injection, schedule: Q01DX009 (ip), vehicle: saline with Tween-80
[9] = dose: 100.0 mg/kg/injection, schedule: Q01DX009 (ip), vehicle: saline with Tween-80

Measured: T/C

CC(=O)Nc1ccc(S(=O)(=O)c2ccc([N+](=O)[O-])cc2)cc1
inactive: [1] 101 % of control | [2] 106 % of control | [3] 105 % of control | [4] 99 % of control

NC1CCC1N (centres undefined)
inactive: [5] 110 % of control | [6] 105 % of control | [7] 105 % of control

OCCN1CCN(CC/C=C2\c3ccccc3Sc3ccc(Cl)cc32)CC1
inactive: dose: 6.25 mg/kg/injection, schedule: Q01DX009 (ip), vehicle: saline 114 % of control | dose: 12.5 mg/kg/injection, schedule: Q01DX009 (ip), vehicle: saline 114 % of control

O=C1OP2(c3ccccc3)(OC(=O)c3ccccc32)c2ccccc21
inactive: [8] 91 % of control | [9] 96 % of control

COc1cccc(/C=N\O)c1
inactive: [2] 104 % of control | [3] 100 % of control | [4] 104 % of control

Cc1onc(-c2ccccc2Cl)c1C(=O)Nc1ccccc1CC1c2ccccc2CCN1C (centres undefined)
inactive: dose: 50.0 mg/kg/injection, schedule: Q01DX009 (ip), vehicle: Klucel (hydroxypropylcellulose) (HPC) 101 % of control | dose: 100.0 mg/kg/injection, schedule: Q01DX009 (ip), vehicle: Klucel (hydroxypropylcellulose) (HPC) 104 % of control | dose: 200.0 mg/kg/injection, schedule: Q01DX009 (ip), vehicle: Klucel (hydroxypropylcellulose) (HPC) 95 % of control

CN=S(=O)(OCCN(C)CCOS(=O)(=NC)c1ccc(C)cc1)c1ccc(C)cc1 (centres undefined)
inactive: dose: 50.0 mg/kg/injection, schedule: Q01DX009 (ip), vehicle: saline + alcohol 112 % of control | dose: 100.0 mg/kg/injection, schedule: Q01DX009 (ip), vehicle: saline + alcohol 103 % of control | dose: 200.0 mg/kg/injection, schedule: Q01DX009 (ip), vehicle: saline + alcohol 116 % of control

CCCCCCCCCCCCCCCCS(=O)(=O)NN
inactive: dose: 12.5 mg/kg/injection, schedule: Q01DX009 (ip), vehicle: other 91 % of control | dose: 25.0 mg/kg/injection, schedule: Q01DX009 (ip), vehicle: other 96 % of control | dose: 50.0 mg/kg/injection, schedule: Q01DX009 (ip), vehicle: other 102 % of control

COC(=O)/C(C#N)=C(\C)CCC=C(C)C
inactive: dose: 25.0 mg/kg/injection, schedule: Q04DX003 (ip), vehicle: saline with Tween-80 95 % of control | [1] 105 % of control | [2] 87 % of control

CS(=O)CC(O)(c1ccccc1)c1ccccn1 (centres undefined)
inactive: [8] 103 % of control | [9] 110 % of control | dose: 200.0 mg/kg/injection, schedule: Q01DX009 (ip), vehicle: saline with Tween-80 100 % of control

CCOC(=O)C(Br)C(Br)c1ccccc1 (centres undefined)
inactive: [5] 100 % of control | [1] 91 % of control | [6] 90 % of control | [2] 108 % of control | [7] 118 % of control | [3] 112 % of control

Cc1cc2cc3c(=O)[nH]c(=O)nc-3n(CC(O)C(O)C(O)COP(=O)(O)O)c2cc1C (centres undefined)
inactive: dose: 66.0 mg/kg/injection, schedule: Q01DX009 (ip), vehicle: saline 100 % of control | dose: 100.0 mg/kg/injection, schedule: Q01DX009 (ip), vehicle: saline 95 % of control and 100 % of control | dose: 100.0 mg/kg/injection, schedule: Q04DX003 (ip), vehicle: saline 100 % of control | dose: 200.0 mg/kg/injection, schedule: Q04DX003 (ip), vehicle: saline 113 % of control | dose: 400.0 mg/kg/injection, schedule: Q04DX003 (ip), vehicle: saline 100 % of control

Cc1cc(=O)[nH]c(N/N=C/c2ccc(N(CCCl)CCCl)cc2)n1
inactive: [2] 95 % of control | [3] 86 % of control | [4] 95 % of control

Cc1cc2nc(SCC(=O)O)[nH]c2cc1C
inactive: dose: 100.0 mg/kg/injection, schedule: Q01DX009 (ip), vehicle: gum acacia 107 % of control | dose: 100.0 mg/kg/injection, schedule: Q04DX003 (ip), vehicle: gum acacia 103 % of control | dose: 200.0 mg/kg/injection, schedule: Q01DX009 (ip), vehicle: gum acacia 100 % of control | dose: 200.0 mg/kg/injection, schedule: Q04DX003 (ip), vehicle: gum acacia 107 % of control | dose: 400.0 mg/kg/injection, schedule: Q01DX009 (ip), vehicle: gum acacia 96 % of control | dose: 400.0 mg/kg/injection, schedule: Q04DX003 (ip), vehicle: gum acacia 107 % of control
